In this test the target is ABCB1 (Homo sapiens, UniProt P08183). As to the kind of experiment: biochemical.
Chain of ABCB1 (P08183 whole entry): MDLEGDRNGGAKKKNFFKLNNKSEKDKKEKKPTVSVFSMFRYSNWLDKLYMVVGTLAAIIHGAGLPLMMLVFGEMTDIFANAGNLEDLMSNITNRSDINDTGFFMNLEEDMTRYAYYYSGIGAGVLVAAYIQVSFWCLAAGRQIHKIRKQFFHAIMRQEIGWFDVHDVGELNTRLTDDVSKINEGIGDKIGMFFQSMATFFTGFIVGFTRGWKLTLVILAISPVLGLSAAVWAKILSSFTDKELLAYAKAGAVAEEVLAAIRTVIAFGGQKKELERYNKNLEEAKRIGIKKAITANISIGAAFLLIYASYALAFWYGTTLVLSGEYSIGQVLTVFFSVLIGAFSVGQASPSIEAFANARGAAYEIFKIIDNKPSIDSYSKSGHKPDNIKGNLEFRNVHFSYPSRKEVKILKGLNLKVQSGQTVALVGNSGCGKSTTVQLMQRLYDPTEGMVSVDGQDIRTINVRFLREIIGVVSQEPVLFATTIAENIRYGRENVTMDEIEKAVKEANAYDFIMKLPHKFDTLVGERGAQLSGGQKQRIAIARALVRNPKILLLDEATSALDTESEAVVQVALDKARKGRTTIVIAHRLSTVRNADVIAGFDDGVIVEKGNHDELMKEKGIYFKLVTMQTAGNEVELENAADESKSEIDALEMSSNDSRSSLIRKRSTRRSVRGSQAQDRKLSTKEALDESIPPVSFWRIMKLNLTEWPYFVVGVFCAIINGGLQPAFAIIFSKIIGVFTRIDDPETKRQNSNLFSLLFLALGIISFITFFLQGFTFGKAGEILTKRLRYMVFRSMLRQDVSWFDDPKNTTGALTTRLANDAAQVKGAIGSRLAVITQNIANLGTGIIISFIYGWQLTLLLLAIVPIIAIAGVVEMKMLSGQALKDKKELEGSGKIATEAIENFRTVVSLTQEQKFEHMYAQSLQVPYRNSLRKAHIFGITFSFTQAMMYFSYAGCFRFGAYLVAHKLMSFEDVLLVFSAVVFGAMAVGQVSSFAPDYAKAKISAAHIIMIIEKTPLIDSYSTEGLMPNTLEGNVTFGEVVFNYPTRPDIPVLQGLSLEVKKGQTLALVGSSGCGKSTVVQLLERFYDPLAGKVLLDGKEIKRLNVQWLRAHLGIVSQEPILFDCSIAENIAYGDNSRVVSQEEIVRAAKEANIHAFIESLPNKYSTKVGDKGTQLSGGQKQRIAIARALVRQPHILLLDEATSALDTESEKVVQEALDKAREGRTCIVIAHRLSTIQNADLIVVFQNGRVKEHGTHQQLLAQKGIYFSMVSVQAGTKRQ

For `CCn1cc(-c2ccnc3[nH]c(-c4cccc(CN(C)C)c4)cc23)c(-c2ccc(NC(=O)N(C)C)cc2)n1` [GSK-1070916], the EC50 (usually the concentration giving half of the maximal effect) worked out at 830 nM.

(Values after PMC7841342, “Elevated ABCB1 Expression Confers Acquired Resistance to Aurora Kinase Inhibitor GSK-1070916 in Cancer Cells” (Frontiers in Pharmacology, 2021).)
